In US6869603B2, “Lipoprotein lipase and lipoprotein lipase activators in the treatment of inflammatory conditions” (The Brigham and Women's Hospital, Inc., priority 2001, dated 2005):
Entries after “also recorded” stand apart in the source; their conditions may differ. Blank lines part the entries; values can stand above or below the molecule they belong to.

Legend:
[1] = test system: VCAM-1 promoter; experiment: VCAM-1 promoter-luc transient transfection in bovine endothelial cells (BoEC); assay type: cell-based
Procedure: Transient transfection: Transient transfection was carried out in primary (passage 3 to 6) bovine aortic endothelial cells using the Superfect method (Qiagen, Germany) according to manufacturer's directions. Briefly, cells were plated in 24-well plates at 2.3×10^4 cells per well in DMEM containing 10% fetal calf serum. After 16 h of growth, cells were washed with HBSS and transfected with medium containing Superfect/DNA (ratio 5.5/1) for 4 hours or with FuGene (1.5/1) overnight. Reporter construct pUASx4-TK-luc, chimeric human PPAR-alpha-LBD constructs, PPAR-alpha and LDL receptor (LDLr) overexpression vectors, and the VCAM-1 promoter-luc, have been described previously. A PCMX-B-galactosidase expression vector was used as a transfection control. Cells were maintained overnight in medium, followed by treatment with compounds for 10 hrs in DMEM medium containing 1% FCS (for PPAR-alpha-LBD constructs) and 1% Nutridoma SP (for VCAM-1 promoter studies). Cells lysed in buffer (Pharmingen) were assayed for luciferase activity using a reported assay system (Pharmingen) according to the manufacturer's instructions. β-galactosidase activity was monitored at 540 nm using CRPTG (Boeringer Mannheim) as substrate. LDL− augments TNFα-mediated VCAM-1 expression: Surface expression of VCAM-1 was studied in HUVEC activated by TNFα. […]

[2] = target: T1, PPAR-alpha-ligand binding domain (LBD) (Homo sapiens, UniProt Q07869); experiment: PPAR-alpha-LBD/GAL4 chimeric construct activation (luciferase) in transiently transfected primary bovine aortic endothelial cells; assay type: cell-based; conditions: for Effect on VLDL/LPL-mediated PPAR-alpha-LBD activation: agent added to VLDL/LPL treatment; for Effect on LPL/LDL− dependent activation of PPAR-alpha: agent added to LDL−/LPL
T1 construct: yeast GAL4 (fusion partner); expressed in transfected cells; host or cells: primary bovine aortic endothelial cells (passage 3-6)
T1 sequence (Q07869 239-466 limits assumed): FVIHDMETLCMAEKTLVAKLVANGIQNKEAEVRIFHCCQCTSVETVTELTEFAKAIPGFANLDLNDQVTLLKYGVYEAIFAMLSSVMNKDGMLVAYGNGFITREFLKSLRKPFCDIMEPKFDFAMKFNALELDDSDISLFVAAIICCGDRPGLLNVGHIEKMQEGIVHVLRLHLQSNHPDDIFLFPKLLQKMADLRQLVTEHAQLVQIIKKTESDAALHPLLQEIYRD
T1 sequence (P04386 1-147 partner limits assumed): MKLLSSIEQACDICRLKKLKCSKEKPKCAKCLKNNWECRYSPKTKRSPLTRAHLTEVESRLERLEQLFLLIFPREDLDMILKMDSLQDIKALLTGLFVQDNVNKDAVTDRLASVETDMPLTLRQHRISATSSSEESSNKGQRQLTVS
Procedure: Transient transfection: Transient transfection was carried out in 24-well plates at 2.3×10^4 primary bovine aortic EC (passage 3-6) per well using Superfect (Qiagen) or Fugene (F. Hoffmann-La Roche). PCMX-β-galactosidase expression vector was used for transfection control. LPL and LPL mutant expression vectors have been previously characterized. Luciferase (Pharmingen, San Diego, Calif.) and P-galactosidase activity were measured according to manufacturer's protocols.
LPL lipolysis of TG-LP generates PPARα ligands: We tested if LPL generates endogenous PPAR-alpha ligands from TG-LP by analyzing activation of chimeric PPAR-alpha-ligand binding domain (LBD) constructs in yeast GAL4 assays. […] Maximal induction was highest for VLDL (21 fold), followed by LDL (14 fold) and HDL (7 fold).
Transient transfection: Transient transfection was carried out in primary (passage 3 to 6) bovine aortic endothelial cells using the Superfect method (Qiagen, Germany) according to manufacturer's directions. Briefly, cells were plated in 24-well plates at 2.3×10^4 cells per well in DMEM containing 10% fetal calf serum. After 16 h of growth, cells were washed with HBSS and transfected with medium containing Superfect/DNA (ratio 5.5/1) for 4 hours or with FuGene (1.5/1) overnight. Reporter construct pUASx4-TK-luc, chimeric human PPAR-alpha-LBD constructs, PPAR-alpha and LDL receptor (LDLr) overexpression vectors, and the VCAM-1 promoter-luc, have been described previously. A PCMX-B-galactosidase expression vector was used as a transfection control. Cells were maintained overnight in medium, followed by treatment with compounds for 10 hrs in DMEM medium containing 1% FCS (for PPAR-alpha-LBD constructs) and 1% Nutridoma SP (for VCAM-1 promoter studies). Cells lysed in buffer (Pharmingen) were assayed for luciferase activity using a reported assay system (Pharmingen) according to the manufacturer's instructions. β-galactosidase activity was monitored at 540 nm using CRPTG (Boeringer Mannheim) as substrate.

[3] = test system: acyl-coenzymeA-oxidase (ACO); experiment: ACO mRNA expression (Northern blot) in HepG2 and primary human macrophages; assay type: cell-based
Procedure: Cell Culture: Circulating human monocytes were isolated from healthy volunteers. Differentiated cells (day 7-10) were treated in M199 medium. Peritoneal Mφ were isolated after 5% thioglycollate broth injection into 2-6 month old PPAR-alpha^+/+ and PPAR-alpha^−/− mice. Mφ were cultured in 10% FCS/DMEM 24 h prior to stimulation. HepG2 cells (ATCC, Manassas, Va.) were cultured in 10% FCS/DMEM.
RNA analysis: Total cell RNA was isolated using RNAEasy kit (Qiagen, Valencia, Calif.), separated using a 1% agarose gel, transferred to a Hydrobone membrane (Amersham, Piscataway, N.J.) and Northern blotting was then performed. cDNA probes for LPL and ACO were obtained from ATCC (Manassas, Va.).
LPL lipolysis of TG-LP activates PPARα-regulated genes: We tested if activation of PPAR-alpha by VLDL/LPL induced expression of an established PPAR-alpha target gene, acyl-coenzymeA-oxidase (ACO). […] In vivo, increased ACO expression has been shown in LPL-overexpressing mice.

[4] = test system: VCAM-1; experiment: Cell surface ELISA of VCAM-1 expression in HUVEC; assay type: cell-based, human; conditions: single stimulus
Procedure: Cell Culture: Human endothelial cells were isolated from umbilical veins and cultured in M199 medium (BioWittaker) containing penicillin/streptomycin, Fungozom, ECGF and 5% fetal calf serum. Cells from passage 3 to 5 were used for experiments. Cells were pretreated with 100 uM fenofibric acid or WY 14643 for 24 h and with LDL species/LPL for 1 h prior to addition of 50 ng/ml TNFα. Subsequent duration of incubations varied. Prior to any procedure cells were washed with ice-cold PBS.
Cell surface ELISA assays were preformed in 96-well plates on confluent monolayers of HUVEC. Treated cells were maintained on ice for 10 minutes, washed with cold PBS and incubated with monoclonal antibodies raised against human VCAM-1. VCAM-1 expression was visualized using alkaline phosphate secondary antibody and measured at […].
LDL− augments TNFα-mediated VCAM-1 expression: Surface expression of VCAM-1 was studied in HUVEC activated by TNFα. Cell stimulation with LDL− lead to approximately a two-fold increase in VCAM-1 expression. In presence of TNFα, VCAM-1 expression was increased 5-fold. […] Here we found a 50% decrease in VCAM-1 expression induced by LDL− and TNFα but pretreated with PPAR-α agonists. […] The VCAM-1 activation was reduced by two-fold in cells ectopically expressing human PPAR-alpha.

Effect on VLDL-induced ACO response [3]: inhibited this VLDL response
Molecule: CCCCCCCCCCC[C@@H](C[C@@H]1OC(=O)[C@H]1CCCCCC)OC(=O)[C@H](CC(C)C)NC=O [tetrahydrolipstatin]
Effect on VLDL/LPL-mediated PPAR-alpha-LBD activation [2]: inhibited LPL-mediated PPAR-alpha-LBD activation in a dose-dependent fashion

Effect on LPL/LDL− dependent activation of PPAR-alpha [2]: inhibited; also recorded: abolished
Molecule: ApoCIII: natural LPL inhibitor

Effect on VLDL/LPL-mediated PPAR-alpha-LBD activation [2]: None of these treatments had any effect
Molecule: heparin

PPAR-alpha-LBD activation by lipolytic products (significant activators of PPAR-alpha) ([2]; lipid added alone): activates PPAR-alpha-LBD
Molecule: monoacylglycerols [MAG]

Effect on LPL/LDL− dependent activation of PPAR-alpha [2]: abolished
B1: heat-inactivated LPL: heat-inactivated lipoprotein lipase (protein, UniProt P06858 28-475, looked up)
Lipoprotein lipase: ADQRRDFIDIESKFALRTPEDTAEDTCHLIPGVAESVATCHFNHSSKTFMVIHGWTVTGMYESWVPKLVAALYKREPDSNVIVVDWLSRAQEHYPVSAGYTKLVGQDVARFINWMEEEFNYPLDNVHLLGYSLGAHAAGIAGSLTNKKVNRITGLDPAGPNFEYAEAPSRLSPDDADFVDVLHTFTRGSPGRSIGIQKPVGHVDIYPNGGTFQPGCNIGEAIRVIAERGLGDVDQLVKCSHERSIHLFIDSLLNEENPSKAYRCSSKEAFEKGLCLSCRKNRCNNLGYEINKVRAKRSSKMYLKTRSQMPYKVFHYQVKIHFSGTESETHTNQAFEISLYGTVAESENIPFTLPEVSTNKTYSFLIYTEVDIGELLMLKLKWKSDSYFSWSDWWSSPGFAIQKIRVKAGETQKKVIFCSREKVSHLQKGKAPAVFVKCHDKSLNKKSG
modifications: heat-inactivated
PPAR-alpha-LBD activation after enzyme treatment of lipoproteins ([2]; enzyme plus lipoprotein): failed to induce PPAR-alpha-LBD activation

Further lines, the molecule ahead of its results:

Molecule: CC(C)(Oc1ccc(C(=O)c2ccc(Cl)cc2)cc1)C(=O)O [Fenofibric acid]
Decrease in LDL−/TNFα dependent VCAM-1 induction ([1]; cells co-transfected with PPAR-alpha vector): 60%
Decrease in LDL−/TNFα dependent VCAM-1 induction ([1]; cells co-transfected with control vector): 40%

Molecule: TNFα
Increase in VCAM-1 surface expression [4]: 5 fold

Molecule: cyclochalasin
Effect on VLDL/LPL-mediated PPAR-alpha-LBD activation [2]: None of these treatments had any effect
